Experimental data: publication PMC5350173, “Acute effects of N‐terminal progastrin fragments on gastric acid secretion in man” (Physiological Reports, 2017)
No end group written: not given here.

Experiment: Plasma concentration of infused peptides by radioimmunoassay

Plasma concentration relative to that of progastrin fragment 1‐35 in experiment D (fragment 1‐19 at t150 in part F versus fragment 1‐35 in part D): half
Cmax (human, plasma, iv, 268 pmol/kg/h, SEM): 0.43 ± 0.0899 nM
Sequence: SWKPRSQQPDAPLGTGANR [progastrin fragment 1‐19]
